Test system: A549
Assay: Cytotoxicity against human A549 cells measured after 24 hrs
Type: functional, cell-based
Conditions: A549, 24 h

For CC(=O)O[C@H]1C(=O)[C@@]2(C)[C@H]([C@H](OC(=O)c3ccccc3)[C@]3(O)C[C@H](OC(=O)[C@H](O)[C@@H](NC(=O)c4ccccc4)c4ccccc4)C(C)=C1C3(C)C)[C@]1(OC(C)=O)CO[C@@H]1C[C@@H]2O [PACLITAXEL], the IC50 was 4.1 nM.
